{"source": "patent US6914045B2", "about": "“Glycopeptide antibiotics” (Wyeth Holdings Corporation, priority 2001, dated 2005)", "key": {"[1]": {"test": "anatomic pathology (histopathology of heart and kidney) in mice", "assay_type": "in vivo", "settings": "CD-1 mice, 20 mg/kg intravenously daily for 9 days, necropsy day 10, microscopic histopathology", "protocol": "Samples of tissues from necropsied mice were formalin-fixed, paraffin-embedded, sectioned, stained with hematoxylin and eosin, and examined microscopically. Histopathologic findings were recorded. These findings were subjectively graded on a scale corresponding to slight, mild, moderate, marked and severe as compared to untreated controls."}, "[2]": {"test": "clinical pathology (serum clinical chemistry) in mice", "assay_type": "in vivo", "settings": "CD-1 mice, 20 mg/kg intravenously daily for 9 days, sera day 10", "protocol": "20-day-old CD-1 mice were divided into a vehicle control group (5 mice) and a treatment group (5 mice). Samples of glycopeptide antibiotics were administered at 20 mg/kg intravenously daily for 9 days."}, "Escherichia coli": {"tested_on": "Escherichia coli", "test": "in vitro antibacterial evaluation, MIC by broth dilution", "assay_type": "cell-based", "settings": "18 hours at 35° C."}, "Staphylococcus sp.": {"tested_on": "Staphylococcus sp.", "test": "in vitro antibacterial evaluation, MIC by broth dilution", "assay_type": "cell-based", "settings": "broth dilution, 18 hours at 35° C.", "in_short": "(§1)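 Following National Committee for Clinical Laboratory Standards recommendations (M7-A2), susceptibility was measured by dilution in Muller-Hinton II […]. Bacteria were seeded at 5×10^5 CFU/mL against compound concentrations from 64 down to 0.06 μg/mL.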"}, "Enterococcus sp.": {"tested_on": "Enterococcus sp.", "test": "in vitro antibacterial evaluation, MIC by broth dilution", "assay_type": "cell-based", "settings": "broth dilution, 18 hours at 35° C.", "in_short": "as §1"}, "Streptococcus sp.": {"tested_on": "Streptococcus sp.", "test": "in vitro antibacterial evaluation, MIC by broth dilution", "assay_type": "cell-based", "settings": "broth dilution, 18 hours at 35° C.", "in_short": "as §1"}, "[3]": {"tested_on": "Staphylococcus aureus-SMITH (GC 4543)", "test": "acute lethal infection in mice", "assay_type": "in vivo", "settings": "acute lethal infection, female CD-1 mice, intraperitoneal challenge, intravenous 30 min. after infection, 7 day survival", "in_short": "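Survival at 7 days, pooled from three independent tests, yields ED50 values. Treatment is intravenous, 30 min after ip infection of female CD-1 mice, using an inoculum lethal to untreated controls within 24-48 hr.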"}}, "data": [{"molecule": "COc1ccc2cc(COCC3OC(OC4C(CO)OC(Oc5ccc(CC6NC(=O)C(C(C)c7ccccc7)NC(=O)CNC(=O)C(CO)NC(=O)C(C(O)C7CNC(=N)N7C7OC(CO)C(O)C(O)C7O)NC(=O)C(C(O)C7CNC(=N)N7)NC6=O)cc5)C(O)C4O)C(O)C(O)C3O)ccc2c1", "note": "(stereo not drawn) [Example 230, Cyclo[glycyl-β-methylphenylalanyl-O-[4-O-[6-O-[(6-methoxy-2-naphthyl)methyl]hexopyranosyl]hexopyranosyl]tyrosyl-3-(2-iminoimidazolidin-4-yl)seryl-3-(3-hexopyranosyl-2-iminoimidazolidin-4-yl)serylseryl]]", "values": [{"measurement": "Anatomical Pathology (Day 10), Heart", "setting": "[1]", "value": 0}, {"measurement": "Anatomical Pathology (Day 10), Kidney", "setting": "[1]", "value": "+++"}, {"measurement": "Clinical Chemistry (Day 10) % of Control, BUN", "setting": "[2]", "value": "+179%"}, {"measurement": "Clinical Chemistry (Day 10) % of Control, Creatinine", "setting": "[2]", "value": "+124%"}, {"measurement": "MIC Escherichia coli (ATCC 25922)", "setting": "Escherichia coli", "value": 64, "unit": "µg/mL"}, {"measurement": "MIC Escherichia coli (GC 4559)", "setting": "Escherichia coli", "value": ">64", "unit": "µg/mL"}, {"measurement": "MIC Escherichia coli (GC 4560)", "setting": "Escherichia coli", "value": 1, "unit": "µg/mL"}, {"measurement": "MIC Coagulase Negative Staphylococcus (GC 4547)", "setting": "Staphylococcus sp.", "value": 1, "unit": "µg/mL"}, {"measurement": "MIC Coagulase Negative Staphylococcus (GC 4548)", "setting": "Staphylococcus sp.", "value": 0.5, "unit": "µg/mL"}, {"measurement": "MIC Coagulase Negative Staphylococcus (GC 4549)", "setting": "Staphylococcus sp.", "value": 1, "unit": "µg/mL"}, {"measurement": "MIC Coagulase Negative Staphylococcus (GC 4551)", "setting": "Staphylococcus sp.", "value": 2, "unit": "µg/mL"}, {"measurement": "MIC Coagulase Negative Staphylococcus (GC 6257)", "setting": "Staphylococcus sp.", "value": 0.5, "unit": "µg/mL"}, {"measurement": "MIC Staphylococcus aureus (ATCC 29213)", "setting": "Staphylococcus sp.", "value": 2, "unit": "µg/mL"}, {"measurement": "MIC Staphylococcus aureus (GC 1131)", "setting": "Staphylococcus sp.", "value": 2, "unit": "µg/mL"}, {"measurement": "MIC Staphylococcus aureus (GC 3051)", "setting": "Staphylococcus sp.", "value": 2, "unit": "µg/mL"}, {"measurement": "MIC Staphylococcus aureus (GC 3053)", "setting": "Staphylococcus sp.", "value": 2, "unit": "µg/mL"}, {"measurement": "MIC Staphylococcus aureus (GC 4541)", "setting": "Staphylococcus sp.", "value": 1, "unit": "µg/mL"}, {"measurement": "MIC Staphylococcus aureus (GC 4542)", "setting": "Staphylococcus sp.", "value": 2, "unit": "µg/mL"}, {"measurement": "MIC Staphylococcus aureus (GC 4544)", "setting": "Staphylococcus sp.", "value": 2, "unit": "µg/mL"}, {"measurement": "MIC Staphylococcus aureus (GC 4545)", "setting": "Staphylococcus sp.", "value": 1, "unit": "µg/mL"}, {"measurement": "MIC Staphylococcus aureus-SMITH (GC 4543)", "setting": "Staphylococcus sp.", "value": 1, "unit": "µg/mL"}, {"measurement": "MIC Staphylococcus haemolyticus (GC 4546)", "setting": "Staphylococcus sp.", "value": 1, "unit": "µg/mL"}, {"measurement": "MIC Staphylococcus aureus (ATCC 29213)", "setting": "Staphylococcus sp.; strain ATCC 29213", "value": 2, "unit": "µg/mL"}, {"measurement": "MIC Staphylococcus aureus (GC 1131)", "setting": "Staphylococcus sp.; strain GC 1131", "value": 2, "unit": "µg/mL"}, {"measurement": "MIC Staphylococcus aureus (GC 3051)", "setting": "Staphylococcus sp.; strain GC 3051", "value": 2, "unit": "µg/mL"}, {"measurement": "MIC Staphylococcus aureus (GC 3053)", "setting": "Staphylococcus sp.; strain GC 3053", "value": 2, "unit": "µg/mL"}, {"measurement": "MIC Staphylococcus aureus (GC 4541)", "setting": "Staphylococcus sp.; strain GC 4541", "value": 1, "unit": "µg/mL"}, {"measurement": "MIC Staphylococcus aureus (GC 4542)", "setting": "Staphylococcus sp.; strain GC 4542", "value": 2, "unit": "µg/mL"}, {"measurement": "MIC Staphylococcus aureus-SMITH (GC 4543)", "setting": "Staphylococcus sp.; strain GC 4543", "value": 1, "unit": "µg/mL"}, {"measurement": "MIC Staphylococcus aureus (GC 4544)", "setting": "Staphylococcus sp.; strain GC 4544", "value": 2, "unit": "µg/mL"}, {"measurement": "MIC Staphylococcus aureus (GC 4545)", "setting": "Staphylococcus sp.; strain GC 4545", "value": 1, "unit": "µg/mL"}, {"measurement": "MIC Staphylococcus haemolyticus (GC 4546)", "setting": "Staphylococcus sp.; strain GC 4546", "value": 1, "unit": "µg/mL"}, {"measurement": "MIC Coagulase Negative Staphylococcus (GC 4547)", "setting": "Staphylococcus sp.; strain GC 4547", "value": 1, "unit": "µg/mL"}, {"measurement": "MIC Coagulase Negative Staphylococcus (GC 4548)", "setting": "Staphylococcus sp.; strain GC 4548", "value": 0.5, "unit": "µg/mL"}, {"measurement": "MIC Coagulase Negative Staphylococcus (GC 4549)", "setting": "Staphylococcus sp.; strain GC 4549", "value": 1, "unit": "µg/mL"}, {"measurement": "MIC Coagulase Negative Staphylococcus (GC 4551)", "setting": "Staphylococcus sp.; strain GC 4551", "value": 2, "unit": "µg/mL"}, {"measurement": "MIC Coagulase Negative Staphylococcus (GC 6257)", "setting": "Staphylococcus sp.; strain GC 6257", "value": 0.5, "unit": "µg/mL"}, {"measurement": "MIC Enterococcus avium (GC 4558)", "setting": "Enterococcus sp.", "value": 8, "unit": "µg/mL"}, {"measurement": "MIC Enterococcus faecalis (ATCC 29212)", "setting": "Enterococcus sp.", "value": 8, "unit": "µg/mL"}, {"measurement": "MIC Enterococcus faecalis (GC 2242)", "setting": "Enterococcus sp.", "value": 8, "unit": "µg/mL"}, {"measurement": "MIC Enterococcus faecalis (GC 2691)", "setting": "Enterococcus sp.", "value": 4, "unit": "µg/mL"}, {"measurement": "MIC Enterococcus faecalis (GC 3059)", "setting": "Enterococcus sp.", "value": 8, "unit": "µg/mL"}, {"measurement": "MIC Enterococcus faecalis (GC 4552)", "setting": "Enterococcus sp.", "value": 8, "unit": "µg/mL"}, {"measurement": "MIC Enterococcus faecalis (GC 4553)", "setting": "Enterococcus sp.", "value": 8, "unit": "µg/mL"}, {"measurement": "MIC Enterococcus faecalis (GC 4554)", "setting": "Enterococcus sp.", "value": 8, "unit": "µg/mL"}, {"measurement": "MIC Enterococcus faecalis (GC 6189)", "setting": "Enterococcus sp.", "value": 4, "unit": "µg/mL"}, {"measurement": "MIC Enterococcus faecium (GC 2243)", "setting": "Enterococcus sp.", "value": 8, "unit": "µg/mL"}, {"measurement": "MIC Enterococcus faecium (GC 4556)", "setting": "Enterococcus sp.", "value": 8, "unit": "µg/mL"}, {"measurement": "MIC Enterococcus faecium (GC 4557)", "setting": "Enterococcus sp.", "value": 2, "unit": "µg/mL"}, {"measurement": "MIC Enterococcus faecalis (ATCC 29212)", "setting": "Enterococcus sp.; inoculum 5×10^5 CFU/mL, strain ATCC 29212", "value": 8, "unit": "µg/mL"}, {"measurement": "MIC Enterococcus faecalis (GC 2242)", "setting": "Enterococcus sp.; inoculum 5×10^5 CFU/mL, strain GC 2242", "value": 8, "unit": "µg/mL"}, {"measurement": "MIC Enterococcus faecium (GC 2243)", "setting": "Enterococcus sp.; inoculum 5×10^5 CFU/mL, strain GC 2243", "value": 8, "unit": "µg/mL"}, {"measurement": "MIC Enterococcus faecalis (GC 2691)", "setting": "Enterococcus sp.; inoculum 5×10^5 CFU/mL, strain GC 2691", "value": 4, "unit": "µg/mL"}, {"measurement": "MIC Enterococcus faecalis (GC 3059)", "setting": "Enterococcus sp.; inoculum 5×10^5 CFU/mL, strain GC 3059", "value": 8, "unit": "µg/mL"}, {"measurement": "MIC Enterococcus faecalis (GC 4552)", "setting": "Enterococcus sp.; inoculum 5×10^5 CFU/mL, strain GC 4552", "value": 8, "unit": "µg/mL"}, {"measurement": "MIC Enterococcus faecalis (GC 4553)", "setting": "Enterococcus sp.; inoculum 5×10^5 CFU/mL, strain GC 4553", "value": 8, "unit": "µg/mL"}, {"measurement": "MIC Enterococcus faecalis (GC 4554)", "setting": "Enterococcus sp.; inoculum 5×10^5 CFU/mL, strain GC 4554", "value": 8, "unit": "µg/mL"}, {"measurement": "MIC Enterococcus faecium (GC 4556)", "setting": "Enterococcus sp.; inoculum 5×10^5 CFU/mL, strain GC 4556", "value": 8, "unit": "µg/mL"}, {"measurement": "MIC Enterococcus faecium (GC 4557)", "setting": "Enterococcus sp.; inoculum 5×10^5 CFU/mL, strain GC 4557", "value": 2, "unit": "µg/mL"}, {"measurement": "MIC Enterococcus avium (GC 4558)", "setting": "Enterococcus sp.; inoculum 5×10^5 CFU/mL, strain GC 4558", "value": 8, "unit": "µg/mL"}, {"measurement": "MIC Enterococcus faecalis (GC 6189)", "setting": "Enterococcus sp.; inoculum 5×10^5 CFU/mL, strain GC 6189", "value": 4, "unit": "µg/mL"}, {"measurement": "MIC Streptococcus agalactiae (GC 4564)", "setting": "Streptococcus sp.", "value": 0.5, "unit": "µg/mL"}, {"measurement": "MIC Streptococcus pneumoniae (ATCC 6301)", "setting": "Streptococcus sp.", "value": 0.12, "unit": "µg/mL"}, {"measurement": "MIC Streptococcus pneumoniae (GC 1894)", "setting": "Streptococcus sp.", "value": "<0.06", "unit": "µg/mL"}, {"measurement": "MIC Streptococcus pneumoniae (GC 4565)", "setting": "Streptococcus sp.", "value": 0.12, "unit": "µg/mL"}, {"measurement": "MIC Streptococcus pyogenes (GC 4563)", "setting": "Streptococcus sp.", "value": 0.25, "unit": "µg/mL"}, {"measurement": "MIC Streptococcus pneumoniae (ATCC 6301)", "setting": "Streptococcus sp.; inoculum 5×10^5 CFU/mL, strain ATCC 6301", "value": 0.12, "unit": "µg/mL"}, {"measurement": "MIC Streptococcus pneumoniae (GC 1894)", "setting": "Streptococcus sp.; inoculum 5×10^5 CFU/mL, strain GC 1894", "value": "<0.06", "unit": "µg/mL"}, {"measurement": "MIC Streptococcus pyogenes (GC 4563)", "setting": "Streptococcus sp.; inoculum 5×10^5 CFU/mL, strain GC 4563", "value": 0.25, "unit": "µg/mL"}, {"measurement": "MIC Streptococcus agalactiae (GC 4564)", "setting": "Streptococcus sp.; inoculum 5×10^5 CFU/mL, strain GC 4564", "value": 0.5, "unit": "µg/mL"}, {"measurement": "MIC Streptococcus pneumoniae (GC 4565)", "setting": "Streptococcus sp.; inoculum 5×10^5 CFU/mL, strain GC 4565", "value": 0.12, "unit": "µg/mL"}, {"measurement": "median effective dose (ED50), Staphylococcus aureus-SMITH (GC 4543)", "setting": "[3]", "value": 0.12, "unit": "mg/kg"}]}]}
